Experimental data published in patent US20090156577A1, “7-AMINO ALKYLIDENYL-HETEROCYCLIC QUINOLONES AND NAPHTHYRIDONES” (priority 2004, published 2009).
≈ marks a conversion by molar mass, not a printed value. Where two headings read alike, the source gives them in different places.

Test system: pathogenic bacteria
Assay: MIC by microdilution broth method (NCCLS M7-A4), in vitro antibacterial activity
Type: cell-based
Protocol: Minimal inhibitory concentration (MIC) has been an indicator of in vitro antibacterial activity widely used in the art. The in vitro antimicrobial activity of the compounds was determined by the microdilution broth method following the test method from the National Committee for Clinical Laboratory Standards (NCCLS). This method is described in the NCCLS Document M7-A4, Vol. 17, No. 2, “Methods for Dilution Antimicrobial Susceptibility Test for Bacteria that Grow Aerobically—Fourth Edition”, which is incorporated herein by reference.
In this method two-fold serial dilutions of drug in cation adjusted Mueller-Hinton broth are added to wells in microdilution trays. The test organisms are prepared by adjusting the turbidity of actively growing broth cultures so that the final concentration of test organism after it is added to the wells is approximately 5×10^4 CFU/well.
Following inoculation of the microdilution trays, the trays are incubated at 35° C. for 16-20 hours and then read. […] The amount of growth in the wells containing the test compound is compared with the amount of growth in the growth-control wells (no test compound) used in each tray. As set forth in Table 5, compounds of the present invention were tested against a variety of pathogenic bacteria resulting in a range of activities depending on the organism tested.

[1] = Staphylococcus aureus, Organism A: Staphylococcus aureus OC4172, read-out: MIC
[2] = Streptococcus pneumoniae, ATCC49619, Organism E: Streptococcus pneumoniae ATCC 49619, read-out: MIC
[3] = Streptococcus pneumoniae, Organism B: fluoroquinolone-resistant clinical isolate of Streptococcus pneumoniae (QRDR amino acid substitutions)
[4] = Streptococcus pneumoniae, Organism C: fluoroquinolone-resistant clinical isolate of Streptococcus pneumoniae (QRDR amino acid substitutions)
[5] = Streptococcus pneumoniae, Organism D: fluoroquinolone-resistant clinical isolate of Streptococcus pneumoniae (QRDR amino acid substitutions)

SMILES: NCC(Cl)=C1CN(c2nc3c(cc2F)c(=O)c(C(=O)O)cn3C2CC2)C1 [Compound 81, 7-[3-(2-Amino-1-chloro-ethylidene)-azetidin-1-yl}-1-cyclopropyl-6-fluoro-4-oxo-1,4-dihydro-[1,8]naphthyridine-3-carboxylic acid]
- MIC [1]: 0.06 µg/mL (≈ 0.158 µM)
- MIC [2]: 0.25 µg/mL (≈ 0.66 µM)
- MIC [3]: 1 µg/mL (≈ 2.64 µM)
- MIC [4]: 2 µg/mL (≈ 5.28 µM)
- MIC [5]: 2 µg/mL (≈ 5.28 µM)

SMILES: NCC(F)=C1CN(c2c(F)cc3c(=O)c(C(=O)O)cn(C4CC4)c3c2OC(F)F)C1 [Compound 160, 7-[3-(2-Amino-1-fluoro-ethylidene)-azetidin-1-yl]-1-cyclopropyl-8-difluoromethoxy-6-fluoro-4-oxo-1,4-dihydro-quinoline-3-carboxylic acid]
- MIC [1]: 0.06 µg/mL (≈ 0.14 µM)
- MIC [2]: 0.12 µg/mL (≈ 0.281 µM)
- MIC [3]: 2 µg/mL (≈ 4.68 µM)
- MIC [4]: 2 µg/mL (≈ 4.68 µM)
- MIC [5]: 1 µg/mL (≈ 2.34 µM)

SMILES: O=C(O)c1cn(C2CC2)c2nc(N3CCC(=CCO)CC3)c(F)cc2c1=O [Compound 163, 1-Cyclopropyl-6-fluoro-7-[4-(2-hydroxy-ethylidene)-piperidin-1-yl]-4-oxo-1,4-dihydro-[1,8]naphthyridine-3-carboxylic acid]
- MIC [1]: 0.12 µg/mL (≈ 0.321 µM)
- MIC [2]: 1 µg/mL (≈ 2.68 µM)
- MIC [3]: 4 µg/mL (≈ 10.7 µM)
- MIC [4]: 4 µg/mL (≈ 10.7 µM)

SMILES: O=C(O)c1cn(C2CC2)c2cc(N3CCC(=CCO)CC3)c(F)cc2c1=O [Compound 164, 1-Cyclopropyl-6-fluoro-7-[4-(2-hydroxy-ethylidene)-piperidin-1-yl]-4-oxo-1,4-dihydro-quinoline-3-carboxylic acid]
- MIC [1]: 0.12 µg/mL (≈ 0.322 µM)
- MIC [2]: 2 µg/mL (≈ 5.37 µM)
- MIC [3]: 32 µg/mL (≈ 85.9 µM)
- MIC [4]: > 32 µg/mL

SMILES: CC(C)NCC(Cl)=C1CCN(c2nc3c(cc2F)c(=O)c(C(=O)O)cn3C2CC2)CC1 [Compound 166, 7-[4-(1-Chloro-2-isopropylamino-ethylidene)-piperidin-1-yl]-1-cyclopropyl-6-fluoro-4-oxo-1,4-dihydro-[1,8]naphthyridine-3-carboxylic acid]
- MIC [1]: 0.5 µg/mL (≈ 1.11 µM)
- MIC [2]: 1 µg/mL (≈ 2.23 µM)
- MIC [4]: 4 µg/mL (≈ 8.91 µM)
- MIC [5]: 4 µg/mL (≈ 8.91 µM)

SMILES: O=C(O)c1cn(C2CC2)c2nc(N3CCC(=C(F)CO)CC3)c(F)cc2c1=O [Compound 172, 1-Cyclopropyl-6-fluoro-7-[4-(1-fluoro-2-hydroxy-ethylidene)-piperidin-1-yl]-4-oxo-1,4-dihydro-[1,8]naphthyridine-3-carboxylic acid]
- MIC [1]: 0.06 µg/mL (≈ 0.153 µM)
- MIC [2]: 1 µg/mL (≈ 2.56 µM)
- MIC [3]: 32 µg/mL (≈ 81.8 µM)
- MIC [4]: 16 µg/mL (≈ 40.9 µM)

SMILES: CC1(C)CN(c2nc3c(cc2F)c(=O)c(C(=O)O)cn3C2CC2)CCC1=C(F)CN [Compound 175, 7-[4-(2-Amino-1-fluoro-ethylidene)-3,3-dimethyl-piperidin-1-yl]-1-cyclopropyl-6-fluoro-4-oxo-1,4-dihydro-[1,8]naphthyridine-3-carboxylic acid]
- MIC [1]: 0.5 µg/mL (≈ 1.19 µM)
- MIC [2]: 0.25 µg/mL (≈ 0.597 µM)
- MIC [3]: 2 µg/mL (≈ 4.78 µM)
- MIC [4]: 2 µg/mL (≈ 4.78 µM)
- MIC [5]: 1 µg/mL (≈ 2.39 µM)

SMILES: CC1(C)CN(c2nc3c(cc2F)c(=O)c(C(=O)O)cn3C2CC2)CCC1=C(Br)CN [Compound 176, 7-[4-(2-Amino-1-bromo-ethylidene)-3,3-dimethyl-piperidin-1-yl]-1-cyclopropyl-6-fluoro-4-oxo-1,4-dihydro-[1,8]naphthyridine-3-carboxylic acid]
- MIC [1]: 0.25 µg/mL (≈ 0.522 µM)
- MIC [2]: 0.12 µg/mL (≈ 0.25 µM)
- MIC [3]: 0.5 µg/mL (≈ 1.04 µM)
- MIC [4]: 1 µg/mL (≈ 2.09 µM)
- MIC [5]: 1 µg/mL (≈ 2.09 µM)

SMILES: CN(C)CCNCC(Cl)=C1CCN(c2nc3c(cc2F)c(=O)c(C(=O)O)cn3C2CC2)CC1 [Compound 177, 7-{4-[1-Chloro-2-(2-dimethylamino-ethylamino)-ethylidene]-piperidin-1-yl}-1-cyclopropyl-6-fluoro-4-oxo-1,4-dihydro-[1,8]naphthyridine-3-carboxylic acid]
- MIC [1]: 1 µg/mL (≈ 2.09 µM)
- MIC [2]: 4 µg/mL (≈ 8.37 µM)
- MIC [3]: 8 µg/mL (≈ 16.7 µM)
- MIC [4]: > 16 µg/mL
- MIC [5]: > 16 µg/mL

SMILES: C=CC(Cl)=C1CCN(c2nc3c(cc2F)c(=O)c(C(=O)O)cn3C2CC2)CC1 [Compound 178, 7-[4-(1-Chloro-allylidene)-piperidin-1-yl]-1-cyclopropyl-6-fluoro-4-oxo-1,4-dihydro-[1,8]naphthyridine-3-carboxylic acid]
- MIC [1]: 0.5 µg/mL (≈ 1.24 µM)
- MIC [2]: 4 µg/mL (≈ 9.9 µM)
- MIC [3]: 1 µg/mL (≈ 2.48 µM)
- MIC [4]: 8 µg/mL (≈ 19.8 µM)
- MIC [5]: 4 µg/mL (≈ 9.9 µM)

SMILES: CCOC(=O)OCC(F)=C1CCN(c2nc3c(cc2F)c(=O)c(C(=O)O)cn3C2CC2)CC1 [Compound 179, 1-Cyclopropyl-7-[4-(2-ethoxycarbonyloxy-1-fluoro-ethylidene)-piperidin-1-yl]-6-fluoro-4-oxo-1,4-dihydro-[1,8]naphthyridine-3-carboxylic acid]
- MIC [1]: 0.5 µg/mL (≈ 1.08 µM)
- MIC [2]: 2 µg/mL (≈ 4.32 µM)
- MIC [3]: > 16 µg/mL
- MIC [4]: > 16 µg/mL
- MIC [5]: > 16 µg/mL

SMILES: CN(C)CC(Cl)=C1CCN(c2nc3c(cc2F)c(=O)c(C(=O)O)cn3C2CC2)CC1 [Compound 180, 7-[4-(1-Chloro-2-dimethylamino-ethylidene)-piperidin-1-yl]-1-cyclopropyl-6-fluoro-4-oxo-1,4-dihydro-[1,8]naphthyridine-3-carboxylic acid]
- MIC [1]: 0.5 µg/mL (≈ 1.15 µM)
- MIC [2]: 0.5 µg/mL (≈ 1.15 µM)
- MIC [4]: 8 µg/mL (≈ 18.4 µM)
- MIC [5]: 2 µg/mL (≈ 4.6 µM)

SMILES: O=C(O)c1cn(C2CC2)c2nc(N3CCC(=C(Cl)CN4CCCCC4)CC3)c(F)cc2c1=O [Compound 181, 7-[4-(1-Chloro-2-piperidin-1-yl-ethylidene)-piperidin-1-yl]-1-cyclopropyl-6-fluoro-4-oxo-1,4-dihydro-[1,8]naphthyridine-3-carboxylic acid]
- MIC [1]: 1 µg/mL (≈ 2.11 µM)
- MIC [2]: 2 µg/mL (≈ 4.21 µM)
- MIC [4]: > 16 µg/mL
- MIC [5]: 8 µg/mL (≈ 16.8 µM)

SMILES: CN(C)CC(F)=C1CCN(c2nc3c(cc2F)c(=O)c(C(=O)O)cn3C2CC2)CC1 [Compound 182, 1-Cyclopropyl-7-[4-(2-dimethylamino-1-fluoro-ethylidene)-piperidin-1-yl]-6-fluoro-4-oxo-1,4-dihydro-[1,8]naphthyridine-3-carboxylic acid]
- MIC [1]: 0.06 µg/mL (≈ 0.143 µM)
- MIC [2]: 0.25 µg/mL (≈ 0.597 µM)
- MIC [4]: 1 µg/mL (≈ 2.39 µM)
- MIC [5]: 2 µg/mL (≈ 4.78 µM)

SMILES: NCC(F)=C1CN(c2nc3c(cc2F)c(=O)c(C(=O)O)cn3-c2ccc(F)cc2F)C1 [Compound 183, 7-[3-(2-Amino-1-fluoro-ethylidene)-azetidin-1-yl]-1-(2,4-difluoro-phenyl)-6-fluoro-4-oxo-1,4-dihydro-[1,8]naphthyridine-3-carboxylic acid]
- MIC [1]: 0.12 µg/mL (≈ 0.276 µM)
- MIC [2]: 0.25 µg/mL (≈ 0.576 µM)
- MIC [4]: 2 µg/mL (≈ 4.6 µM)
- MIC [5]: 2 µg/mL (≈ 4.6 µM)

SMILES: O=C(O)c1cn(-c2ccc(F)cc2F)c2nc(N3CCC(=CCO)CC3)c(F)cc2c1=O [Compound 185, 1-(2,4-Difluoro-phenyl)-6-fluoro-7-[4-(2-hydroxy-ethylidene)-piperidin-1-yl]-4-oxo-1,4-dihydro-[1,8]naphthyridine-3-carboxylic acid]
- MIC [1]: 0.12 µg/mL (≈ 0.269 µM)
- MIC [2]: 1 µg/mL (≈ 2.25 µM)
- MIC [3]: 16 µg/mL (≈ 35.9 µM)
- MIC [4]: 16 µg/mL (≈ 35.9 µM)

SMILES: COc1c(N2CC(=C(Cl)CN)C2)c(F)cc2c(=O)c(C(=O)O)cn(C3CC3)c12 [Compound 189, 7-[3-(2-Amino-1-chloro-ethylidene)-azetidin-1-yl]-1-cyclopropyl-6-fluoro-8-methoxy-4-oxo-1,4-dihydro-quinoline-3-carboxylic acid]
- MIC [1]: < 0.12 µg/mL
- MIC [2]: 2 µg/mL (≈ 4.9 µM)
- MIC [3]: 4 µg/mL (≈ 9.81 µM)
- MIC [4]: 2 µg/mL (≈ 4.9 µM)
- MIC [5]: 4 µg/mL (≈ 9.81 µM)

SMILES: COc1c(N2CCC(=C(Cl)CN(C)C)CC2)c(F)cc2c(=O)c(C(=O)O)cn(C3CC3)c12 [Compound 191, 7-[4-(1-Chloro-2-dimethylamino-ethylidene)-piperidin-1-yl]-1-cyclopropyl-6-fluoro-8-methoxy-4-oxo-1,4-dihydro-quinoline-3-carboxylic acid]
- MIC [1]: 0.25 µg/mL (≈ 0.539 µM)
- MIC [2]: 0.5 µg/mL (≈ 1.08 µM)
- MIC [3]: 8 µg/mL (≈ 17.2 µM)
- MIC [4]: 8 µg/mL (≈ 17.2 µM)
- MIC [5]: 2 µg/mL (≈ 4.31 µM)

SMILES: COc1c(N2CCC(=C(Cl)CN3CCCC3)CC2)c(F)cc2c(=O)c(C(=O)O)cn(C3CC3)c12 [Compound 193, 7-[4-(1-Chloro-2-pyrrolidin-1-yl-ethylidene)-piperidin-1-yl]-1-cyclopropyl-6-fluoro-8-methoxy-4-oxo-1,4-dihydro-quinoline-3-carboxylic acid]
- MIC [1]: 0.12 µg/mL (≈ 0.245 µM)
- MIC [2]: 0.5 µg/mL (≈ 1.02 µM)
- MIC [3]: 8 µg/mL (≈ 16.3 µM)
- MIC [4]: 8 µg/mL (≈ 16.3 µM)
- MIC [5]: 2 µg/mL (≈ 4.08 µM)

SMILES: COc1c(N2CCC(=C(Cl)CN3CCCCC3)CC2)c(F)cc2c(=O)c(C(=O)O)cn(C3CC3)c12 [Compound 194, 7-[4-(1-Chloro-2-piperidin-1-yl-ethylidene)-piperidin-1-yl]-1-cyclopropyl-6-fluoro-8-methoxy-4-oxo-1,4-dihydro-quinoline-3-carboxylic acid]
- MIC [1]: 0.12 µg/mL (≈ 0.238 µM)
- MIC [2]: 0.5 µg/mL (≈ 0.992 µM)
- MIC [3]: 2 µg/mL (≈ 3.97 µM)
- MIC [4]: 4 µg/mL (≈ 7.94 µM)
- MIC [5]: 1 µg/mL (≈ 1.98 µM)

SMILES: COc1c(N2CCC(=C(Cl)CN3CCOCC3)CC2)c(F)cc2c(=O)c(C(=O)O)cn(C3CC3)c12 [Compound 195, 7-[4-(1-Chloro-2-morpholin-4-yl-ethylidene)-piperidin-1-yl]-1-cyclopropyl-6-fluoro-8-methoxy-4-oxo-1,4-dihydro-quinoline-3-carboxylic acid]
- MIC [1]: 0.12 µg/mL (≈ 0.237 µM)
- MIC [2]: 1 µg/mL (≈ 1.98 µM)
- MIC [3]: 8 µg/mL (≈ 15.8 µM)
- MIC [4]: 8 µg/mL (≈ 15.8 µM)
- MIC [5]: 2 µg/mL (≈ 3.95 µM)
